Key:
HIV-1 = details: background statement; cited from earlier work
[1] = Stability of lyophilized Albuvirtide-PB upon storage at −20° C. (HPLC); type: physicochemical; details: in words, Table 6
Protocol: (§1) The liquid compositions having albuvirtide and PB were then lyophilized and their stability were tested. Part of the organic solvent could be removed using reduced-pressure evaporation. Stability of Albuvirtide-PB upon lyophilization, upon storage at 25° C., 6° C. and −20° C. were tested using HPLC. The lyophilized powder of Albuvirtide-PB were kept at 25° C., 6° C. and −20° C. for certain periods of time while their purities were monitored during such periods by HPLC.

[2] = Stability of lyophilized Albuvirtide-PB upon storage at 6° C. (HPLC); type: physicochemical; details: in words
Protocol: as §1

[3] = Stability of lyophilized albuvirtide compositions upon storage at 25° C. (HPLC); type: physicochemical; details: in words
Protocol: as §1

[4] = cited from earlier work

albuvirtide
concentration at which viral entry is inhibited (HIV-1): low nanomolar concentration
in vitro activity against HIV-1 (HIV-1): in vitro activity against various HIV-1 strains and certain variants that are resistant to enfuvirtide (Fuzeon)
purity of albuvirtide during storage for 3 month at −20° C. [1]: barely changed
change in purity of albuvirtide during storage for 1 month at 6° C. ([2]; Table 5): equivalent to that during storage at 25 °C for 5 days
purity of albuvirtide during storage for 2 months at 6° C. ([2]; Table 10): barely changed
purity of albuvirtide during storage for 5 days at 25° C. ([3]; Table 9): barely changed
purity of albuvirtide during storage for 1 month at 25° C. ([3]; Table 11): barely changed
in vivo half-life [4]: long half-life

From patent publication US20220257702A1, “STABLE ALBUVIRTIDE COMPOSITIONS” (priority 2019, published 2022)
